Experimental data reported in the CheMixHub viscosity set.
± gives the uncertainty stated by the source.

Assay: xn = mol fraction of the nth substance listed

SMILES: CCCC(=O)O + O
- viscosity (293.15 K, 101 kPa, x1 = 0.015): 1.31 ± 0.01 mPa·s
- viscosity (293.15 K, 101 kPa, x1 = 0.034): 1.64 ± 0.02 mPa·s
- viscosity (293.15 K, 101 kPa, x1 = 0.078): 2.41 ± 0.02 mPa·s
- viscosity (293.15 K, 101 kPa, x1 = 0.165): 3.24 ± 0.04 mPa·s
- viscosity (293.15 K, 101 kPa, x1 = 0.316): 3.71 ± 0.05 mPa·s
- viscosity (293.15 K, 101 kPa, x1 = 0.497): 3.6 ± 0.06 mPa·s
- viscosity (293.15 K, 101 kPa, x1 = 0.664): 3.25 ± 0.06 mPa·s
- viscosity (293.15 K, 101.33 kPa, x1 = 0.0222): 1.332 ± 0.013 mPa·s
- viscosity (293.15 K, 101.33 kPa, x1 = 0.0806): 2.265 ± 0.023 mPa·s
- viscosity (293.15 K, 101.33 kPa, x1 = 0.17): 3.095 ± 0.031 mPa·s
- viscosity (298.15 K, 101 kPa, x1 = 0.006288): 0.973 ± 0.026 mPa·s
- viscosity (298.15 K, 101 kPa, x1 = 0.01294): 1.065 ± 0.029 mPa·s
- viscosity (298.15 K, 101 kPa, x1 = 0.02): 1.152 ± 0.031 mPa·s
- viscosity (298.15 K, 101 kPa, x1 = 0.02743): 1.248 ± 0.034 mPa·s
- viscosity (298.15 K, 101 kPa, x1 = 0.03475): 1.344 ± 0.036 mPa·s
- viscosity (298.15 K, 101 kPa, x1 = 0.04154): 1.44 ± 0.039 mPa·s
- viscosity (298.15 K, 101 kPa, x1 = 0.04898): 1.55 ± 0.042 mPa·s
- viscosity (298.15 K, 101 kPa, x1 = 0.05981): 1.695 ± 0.046 mPa·s
- viscosity (298.15 K, 101 kPa, x1 = 0.07342): 1.881 ± 0.051 mPa·s
- viscosity (298.15 K, 101 kPa, x1 = 0.08697): 2.038 ± 0.055 mPa·s
- viscosity (298.15 K, 101 kPa, x1 = 0.1045): 2.222 ± 0.06 mPa·s
- viscosity (298.15 K, 101 kPa, x1 = 0.1191): 2.365 ± 0.064 mPa·s
- viscosity (298.15 K, 101 kPa, x1 = 0.133): 2.463 ± 0.066 mPa·s
- viscosity (298.15 K, 101 kPa, x1 = 0.144): 2.538 ± 0.068 mPa·s
- viscosity (298.15 K, 101 kPa, x1 = 0.17): 2.699 ± 0.073 mPa·s
- viscosity (298.15 K, 101 kPa, x1 = 0.2): 2.823 ± 0.076 mPa·s
- viscosity (298.15 K, 101 kPa, x1 = 0.237): 2.941 ± 0.079 mPa·s
- viscosity (298.15 K, 101 kPa, x1 = 0.277): 3.039 ± 0.081 mPa·s
- viscosity (298.15 K, 101 kPa, x1 = 0.321): 3.121 ± 0.084 mPa·s
- viscosity (298.15 K, 101 kPa, x1 = 0.36): 3.129 ± 0.084 mPa·s
- viscosity (298.15 K, 101 kPa, x1 = 0.408): 3.136 ± 0.084 mPa·s
- viscosity (298.15 K, 101 kPa, x1 = 0.472): 3.095 ± 0.083 mPa·s
- viscosity (298.15 K, 101 kPa, x1 = 0.529): 3.032 ± 0.081 mPa·s
- viscosity (298.15 K, 101 kPa, x1 = 0.618): 2.861 ± 0.076 mPa·s
- viscosity (298.15 K, 101 kPa, x1 = 0.669): 2.702 ± 0.072 mPa·s
- viscosity (298.15 K, 101 kPa, x1 = 0.816): 2.249 ± 0.06 mPa·s
- viscosity (308.15 K, 101 kPa, x1 = 0.006288): 0.777 ± 0.021 mPa·s
- viscosity (308.15 K, 101 kPa, x1 = 0.01294): 0.844 ± 0.023 mPa·s
- viscosity (308.15 K, 101 kPa, x1 = 0.02): 0.911 ± 0.024 mPa·s
- viscosity (308.15 K, 101 kPa, x1 = 0.02743): 0.979 ± 0.026 mPa·s
- viscosity (308.15 K, 101 kPa, x1 = 0.03475): 1.048 ± 0.028 mPa·s
- viscosity (308.15 K, 101 kPa, x1 = 0.04154): 1.12 ± 0.03 mPa·s
- viscosity (308.15 K, 101 kPa, x1 = 0.04898): 1.201 ± 0.032 mPa·s
- viscosity (308.15 K, 101 kPa, x1 = 0.05981): 1.308 ± 0.035 mPa·s
- viscosity (308.15 K, 101 kPa, x1 = 0.07342): 1.445 ± 0.039 mPa·s
- viscosity (308.15 K, 101 kPa, x1 = 0.08697): 1.563 ± 0.042 mPa·s
- viscosity (308.15 K, 101 kPa, x1 = 0.1045): 1.695 ± 0.046 mPa·s
- viscosity (308.15 K, 101 kPa, x1 = 0.1191): 1.769 ± 0.048 mPa·s
- viscosity (308.15 K, 101 kPa, x1 = 0.133): 1.873 ± 0.05 mPa·s
- viscosity (308.15 K, 101 kPa, x1 = 0.144): 1.932 ± 0.052 mPa·s
- viscosity (308.15 K, 101 kPa, x1 = 0.17): 2.049 ± 0.055 mPa·s
- viscosity (308.15 K, 101 kPa, x1 = 0.2): 2.15 ± 0.058 mPa·s
- viscosity (308.15 K, 101 kPa, x1 = 0.237): 2.243 ± 0.06 mPa·s
- viscosity (308.15 K, 101 kPa, x1 = 0.277): 2.322 ± 0.062 mPa·s
- viscosity (308.15 K, 101 kPa, x1 = 0.321): 2.392 ± 0.064 mPa·s
- viscosity (308.15 K, 101 kPa, x1 = 0.36): 2.415 ± 0.065 mPa·s
- viscosity (308.15 K, 101 kPa, x1 = 0.408): 2.415 ± 0.065 mPa·s
- viscosity (308.15 K, 101 kPa, x1 = 0.472): 2.398 ± 0.064 mPa·s
- viscosity (308.15 K, 101 kPa, x1 = 0.529): 2.358 ± 0.063 mPa·s
- viscosity (308.15 K, 101 kPa, x1 = 0.618): 2.248 ± 0.06 mPa·s
- viscosity (308.15 K, 101 kPa, x1 = 0.669): 2.142 ± 0.057 mPa·s
- viscosity (308.15 K, 101 kPa, x1 = 0.816): 1.819 ± 0.049 mPa·s
- viscosity (313.15 K, 101.33 kPa, x1 = 0.0222): 0.848 ± 0.0085 mPa·s
- viscosity (313.15 K, 101.33 kPa, x1 = 0.0806): 1.327 ± 0.013 mPa·s
- viscosity (313.15 K, 101.33 kPa, x1 = 0.17): 1.786 ± 0.018 mPa·s

SMILES: CCCC(=O)O + Cc1cccc(O)c1
- viscosity (298.15 K, 101 kPa, x1 = 0.1119): 10.28 ± 0.77 mPa·s
- viscosity (298.15 K, 101 kPa, x1 = 0.2209): 8.292 ± 0.64 mPa·s
- viscosity (298.15 K, 101 kPa, x1 = 0.3191): 6.808 ± 0.55 mPa·s
- viscosity (298.15 K, 101 kPa, x1 = 0.4306): 5.408 ± 0.46 mPa·s
- viscosity (298.15 K, 101 kPa, x1 = 0.5314): 4.362 ± 0.38 mPa·s
- viscosity (298.15 K, 101 kPa, x1 = 0.6298): 3.51 ± 0.31 mPa·s
- viscosity (298.15 K, 101 kPa, x1 = 0.7257): 2.822 ± 0.25 mPa·s
- viscosity (298.15 K, 101 kPa, x1 = 0.8194): 2.272 ± 0.21 mPa·s
- viscosity (298.15 K, 101 kPa, x1 = 0.9108): 1.845 ± 0.17 mPa·s
- viscosity (308.15 K, 101 kPa, x1 = 0.1119): 6.028 ± 0.5 mPa·s
- viscosity (308.15 K, 101 kPa, x1 = 0.2209): 5.153 ± 0.45 mPa·s
- viscosity (308.15 K, 101 kPa, x1 = 0.3191): 4.446 ± 0.39 mPa·s
- viscosity (308.15 K, 101 kPa, x1 = 0.4306): 3.724 ± 0.33 mPa·s
- viscosity (308.15 K, 101 kPa, x1 = 0.5314): 3.137 ± 0.28 mPa·s
- viscosity (308.15 K, 101 kPa, x1 = 0.6298): 2.619 ± 0.24 mPa·s
- viscosity (308.15 K, 101 kPa, x1 = 0.7257): 2.167 ± 0.2 mPa·s
- viscosity (308.15 K, 101 kPa, x1 = 0.8194): 1.782 ± 0.17 mPa·s
- viscosity (308.15 K, 101 kPa, x1 = 0.9108): 1.471 ± 0.14 mPa·s
- viscosity (318.15 K, 101 kPa, x1 = 0.1119): 4.743 ± 0.42 mPa·s
- viscosity (318.15 K, 101 kPa, x1 = 0.2209): 4.158 ± 0.37 mPa·s
- viscosity (318.15 K, 101 kPa, x1 = 0.3191): 3.662 ± 0.32 mPa·s
- viscosity (318.15 K, 101 kPa, x1 = 0.4306): 3.14 ± 0.28 mPa·s
- viscosity (318.15 K, 101 kPa, x1 = 0.5314): 2.707 ± 0.24 mPa·s
- viscosity (318.15 K, 101 kPa, x1 = 0.6298): 2.316 ± 0.21 mPa·s
- viscosity (318.15 K, 101 kPa, x1 = 0.7257): 1.957 ± 0.18 mPa·s
- viscosity (318.15 K, 101 kPa, x1 = 0.8194): 1.621 ± 0.15 mPa·s
- viscosity (318.15 K, 101 kPa, x1 = 0.9108): 1.293 ± 0.12 mPa·s

SMILES: CCCC(C)O (centres undefined) + COc1ccccc1
- viscosity (303.15 K, 101.33 kPa, x2 = 0.1007): 2.097 ± 0.028 mPa·s
- viscosity (303.15 K, 101.33 kPa, x2 = 0.2007): 1.59 ± 0.021 mPa·s
- viscosity (303.15 K, 101.33 kPa, x2 = 0.3001): 1.279 ± 0.017 mPa·s
- viscosity (303.15 K, 101.33 kPa, x2 = 0.4004): 1.095 ± 0.014 mPa·s
- viscosity (303.15 K, 101.33 kPa, x2 = 0.5005): 0.998 ± 0.013 mPa·s
- viscosity (303.15 K, 101.33 kPa, x2 = 0.5991): 0.951 ± 0.012 mPa·s
- viscosity (303.15 K, 101.33 kPa, x2 = 0.6973): 0.931 ± 0.012 mPa·s
- viscosity (303.15 K, 101.33 kPa, x2 = 0.798): 0.924 ± 0.011 mPa·s
- viscosity (303.15 K, 101.33 kPa, x2 = 0.897): 0.919 ± 0.011 mPa·s
- viscosity (313.15 K, 101.33 kPa, x2 = 0.1007): 1.557 ± 0.021 mPa·s
- viscosity (313.15 K, 101.33 kPa, x2 = 0.2007): 1.234 ± 0.016 mPa·s
- viscosity (313.15 K, 101.33 kPa, x2 = 0.3001): 1.025 ± 0.013 mPa·s
- viscosity (313.15 K, 101.33 kPa, x2 = 0.4004): 0.903 ± 0.012 mPa·s
- viscosity (313.15 K, 101.33 kPa, x2 = 0.5005): 0.845 ± 0.011 mPa·s
- viscosity (313.15 K, 101.33 kPa, x2 = 0.5991): 0.823 ± 0.01 mPa·s
- viscosity (313.15 K, 101.33 kPa, x2 = 0.6973): 0.816 ± 0.01 mPa·s
- viscosity (313.15 K, 101.33 kPa, x2 = 0.798): 0.811 ± 0.01 mPa·s
- viscosity (313.15 K, 101.33 kPa, x2 = 0.897): 0.801 ± 0.01 mPa·s
- viscosity (323.15 K, 101.33 kPa, x2 = 0.1007): 1.202 ± 0.016 mPa·s
- viscosity (323.15 K, 101.33 kPa, x2 = 0.2007): 1.014 ± 0.013 mPa·s
- viscosity (323.15 K, 101.33 kPa, x2 = 0.3001): 0.887 ± 0.012 mPa·s
- viscosity (323.15 K, 101.33 kPa, x2 = 0.4004): 0.803 ± 0.01 mPa·s
- viscosity (323.15 K, 101.33 kPa, x2 = 0.5005): 0.753 ± 0.01 mPa·s
- viscosity (323.15 K, 101.33 kPa, x2 = 0.5991): 0.725 ± 0.009 mPa·s
- viscosity (323.15 K, 101.33 kPa, x2 = 0.6973): 0.711 ± 0.009 mPa·s
- viscosity (323.15 K, 101.33 kPa, x2 = 0.798): 0.704 ± 0.009 mPa·s
- viscosity (323.15 K, 101.33 kPa, x2 = 0.897): 0.697 ± 0.009 mPa·s
